Like-named read-outs stand apart in the source and are kept apart here.
Columns and labels:
[1] = molecular target: His6-TEV-PDGFRβ (557-1016) (Homo sapiens (Human), UniProt P09619); test: PDGFRβ HTRF Assay; format: biochemical; conditions: read-out: PDGFR HTRF IC50
Procedure, shortened: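 HTRF KinEASE-TK readout (665/620 nm ratio) of TK-biotin substrate phosphorylation by His-tagged PDGFRβ kinase domain. Enzyme and inhibitor preincubated 30 min, then ATP/substrate added for 3 h at room temperature before 60 min EDTA quench/detection.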

[2] = molecular target: PDGFRβ (Rattus norvegicus (Rat), UniProt Q05030); test: PDGFRβ Cellular Assay (PDGFRb P-Y751 HTRF in A10 cells stimulated with PDGF-BB); format: cell-based
PDGFRβ, sequence (Q05030 32-1097): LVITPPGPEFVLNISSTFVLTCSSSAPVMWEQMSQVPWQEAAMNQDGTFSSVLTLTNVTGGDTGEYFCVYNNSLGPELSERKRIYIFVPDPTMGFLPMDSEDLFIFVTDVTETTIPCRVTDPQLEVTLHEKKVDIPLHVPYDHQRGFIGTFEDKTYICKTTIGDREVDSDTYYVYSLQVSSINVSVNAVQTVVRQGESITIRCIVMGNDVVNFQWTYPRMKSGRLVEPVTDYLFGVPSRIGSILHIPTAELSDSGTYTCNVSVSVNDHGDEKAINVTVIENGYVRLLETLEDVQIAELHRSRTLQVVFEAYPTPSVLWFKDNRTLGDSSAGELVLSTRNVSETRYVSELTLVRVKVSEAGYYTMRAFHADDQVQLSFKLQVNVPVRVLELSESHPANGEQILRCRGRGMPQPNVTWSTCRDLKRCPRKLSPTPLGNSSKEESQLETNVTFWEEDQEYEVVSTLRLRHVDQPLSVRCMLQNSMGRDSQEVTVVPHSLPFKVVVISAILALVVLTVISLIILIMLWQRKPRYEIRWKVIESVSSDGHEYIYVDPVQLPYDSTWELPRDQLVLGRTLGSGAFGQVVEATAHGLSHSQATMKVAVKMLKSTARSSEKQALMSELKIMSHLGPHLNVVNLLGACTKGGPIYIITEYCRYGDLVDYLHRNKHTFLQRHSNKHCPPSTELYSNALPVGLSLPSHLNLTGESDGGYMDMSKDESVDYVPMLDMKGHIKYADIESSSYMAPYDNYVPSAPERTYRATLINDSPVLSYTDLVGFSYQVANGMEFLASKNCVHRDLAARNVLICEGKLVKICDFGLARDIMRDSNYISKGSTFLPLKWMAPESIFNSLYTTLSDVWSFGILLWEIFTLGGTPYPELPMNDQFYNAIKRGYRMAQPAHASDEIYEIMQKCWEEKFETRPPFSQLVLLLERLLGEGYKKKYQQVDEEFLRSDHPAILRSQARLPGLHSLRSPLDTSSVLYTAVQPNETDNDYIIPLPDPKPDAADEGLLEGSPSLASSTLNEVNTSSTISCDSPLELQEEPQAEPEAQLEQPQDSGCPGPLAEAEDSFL
Procedure, shortened: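 Phospho-Y751 PDGFRβ was measured by HTRF in lysates of A10 rat cells. Cells received compound for 3 hours before PDGF-BB stimulation (100 ng/mL working stock).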

His6-TEV-PDGFRβ (557-1016), sequence (P09619 557-1016): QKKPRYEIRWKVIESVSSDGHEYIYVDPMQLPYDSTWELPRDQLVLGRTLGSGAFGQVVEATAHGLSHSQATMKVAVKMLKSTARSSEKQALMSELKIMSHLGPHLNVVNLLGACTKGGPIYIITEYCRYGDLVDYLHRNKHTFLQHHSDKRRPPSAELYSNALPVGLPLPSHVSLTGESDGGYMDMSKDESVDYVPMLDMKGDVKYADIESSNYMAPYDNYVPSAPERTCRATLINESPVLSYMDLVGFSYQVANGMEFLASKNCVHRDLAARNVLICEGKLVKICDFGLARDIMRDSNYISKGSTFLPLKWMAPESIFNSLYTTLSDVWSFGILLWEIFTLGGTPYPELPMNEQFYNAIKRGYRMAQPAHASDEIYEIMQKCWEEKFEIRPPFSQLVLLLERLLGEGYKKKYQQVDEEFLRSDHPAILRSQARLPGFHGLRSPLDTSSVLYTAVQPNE

Row | SMILES | IC50 [1] [nM] | IC50 ([2]; read-out: PDGFR Cellular IC50) [nM] | IC50 ([2]; PDGFR Cellular IC50) [nM]
1 | Cc1ncc(C(=O)NCCN2CCC3(CCOC3)C2)cc1NC(=O)c1cnn2cc(-c3cnn(C)c3)sc12 (centres unmarked) [Example 116, N-(5-((2-(2-oxa-7-azaspiro[4.4]nonan-7-yl)ethyl)carbamoyl)-2-methylpyridin-3-yl)-2-(1-methyl-1H-pyrazol-4-yl)pyrazolo[5,1-b]thiazole-7-carboxamide] | 0.5 | 74.7 | 
2 | COCCn1cc(-c2cn3ncc(C(=O)Nc4cc(NC(=O)CCN5CC6CCC5CC6)cnc4C)c3s2)cn1 [Example 100, N-(5-(3-(2-azabicyclo[2.2.2]octan-2-yl)propanamido)-2-methylpyridin-3-yl)-2-(1-(2-methoxyethyl)-1H-pyrazol-4-yl)pyrazolo[5,1-b]thiazole-7-carboxamide] | 0.5 | 33.4 | 
3 | Cc1ncc(C(=O)NCCN2CCC3(CC3)C2)cc1NC(=O)c1cnn2cc(-c3cccnc3)sc12 [Example 159, N-(5-((2-(5-azaspiro[2.4]heptan-5-yl)ethyl)carbamoyl)-2-methylpyridin-3-yl)-2-(pyridin-3-yl)pyrazolo[5,1-b]thiazole-7-carboxamide] | 0.7 | 86.8 | 
4 | Cc1ncc(C(=O)NCCN2CCC3(CC3)C2)cc1NC(=O)c1cnn2cc(-c3cn(C)cn3)sc12 [Example 162, N-(5-((2-(5-azaspiro[2.4]heptan-5-yl)ethyl)carbamoyl)-2-methylpyridin-3-yl)-2-(1-methyl-1H-imidazol-4-yl)pyrazolo[5,1-b]thiazole-7-carboxamide] | 0.4 | 660 | 
5 | Cc1ncc(C(=O)NCCN2CCC3(CC3)C2)cc1NC(=O)c1cnn2cc(-c3ccncc3)sc12 [Example 153, N-(5-((2-(5-azaspiro[2.4]heptan-5-yl)ethyl)carbamoyl)-2-methylpyridin-3-yl)-2-(pyridin-4-yl)pyrazolo[5,1-b]thiazole-7-carboxamide] | 0.4 | 106 | 
6 | Cc1ncc(NC(=O)CCN2CC(C)(C)C2)cc1NC(=O)c1cnn2cc(-c3cnn(C)c3)sc12 [Example 96, N-(5-(3-(3,3-dimethylazetidin-1-yl)propanamido)-2-methylpyridin-3-yl)-2-(1-methyl-1H-pyrazol-4-yl)pyrazolo[5,1-b]thiazole-7-carboxamide] | 0.6 | 17 | 
7 | Cc1ncc(C(=O)NCCN2CCCC2(C)C)cc1NC(=O)c1cnn2cc(-c3cnn(C)c3C)sc12 [Example 173, 2-(1,5-dimethyl-1H-pyrazol-4-yl)-N-(5-((2-(2,2-dimethylpyrrolidin-1-yl)ethyl)carbamoyl)-2-methylpyridin-3-yl)pyrazolo[5,1-b]thiazole-7-carboxamide] | 0.3 | 11.8 | 
8 | Cc1ncc(C(=O)NCCN2C3CCC2CC3)cc1NC(=O)c1cnn2cc(-c3cnn(C)c3C)sc12 [Example 172, N-(5-((2-(7-azabicyclo[2.2.1]heptan-7-yl)ethyl)carbamoyl)-2-methylpyridin-3-yl)-2-(1,5-dimethyl-1H-pyrazol-4-yl)pyrazolo[5,1-b]thiazole-7-carboxamide] | 0.3 | 66.6 | 
9 | Cc1ncc(C(=O)NCCN2CCCC2(C)C)cc1NC(=O)c1cnn2cc(-c3cnn(C)c3)sc12 [Example 8, N-(5-((2-(2,2-dimethylpyrrolidin-1-yl)ethyl)carbamoyl)-2-methylpyridin-3-yl)-2-(1-methyl-1H-pyrazol-4-yl)pyrazolo[5,1-b]thiazole-7-carboxamide] | 0.4 | 43.6 | 
10 | Cc1ncc(C(=O)NCCN2CC(C)(C)C2)cc1NC(=O)c1cnn2cc(-c3ccncc3)sc12 [Example 155, N-(5-((2-(3,3-dimethylazetidin-1-yl)ethyl)carbamoyl)-2-methylpyridin-3-yl)-2-(pyridin-4-yl)pyrazolo[5,1-b]thiazole-7-carboxamide] | 1 | 153 | 
11 | Cc1ncc(C(=O)NCCN2CC3CC(C3)C2)cc1NC(=O)c1cnn2cc(-c3cnn(C)c3)sc12 [Example 5, N-(5-((2-(3-azabicyclo[3.1.1]heptan-3-yl)ethyl)carbamoyl)-2-methylpyridin-3-yl)-2-(1-methyl-1H-pyrazol-4-yl)pyrazolo[5,1-b]thiazole-7-carboxamide] | 0.4 | 26.2 | 
12 | Cc1ncc(C(=O)NCCN2CC3COCC3C2)cc1NC(=O)c1cnn2cc(-c3cnn(C)c3)sc12 (centres unmarked) [Example 112, 2-(1-methyl-1H-pyrazol-4-yl)-N-(2-methyl-5-((2-(tetrahydro-1H-furo[3,4-c]pyrrol-5 (3H)-yl)ethyl)carbamoyl)pyridin-3-yl)pyrazolo[5,1-b]thiazole-7-carboxamide] | 0.5 | 159 | 
13 | COCCN(CCNC(=O)c1cnc(C)c(NC(=O)c2cnn3cc(-c4cnn(C)c4)sc23)c1)C1CCC1 [Example 115, N-(5-((2-(cyclobutyl(2-methoxyethyl)amino)ethyl)carbamoyl)-2-methylpyridin-3-yl)-2-(1-methyl-1H-pyrazol-4-yl)pyrazolo[5,1-b]thiazole-7-carboxamide] | 0.4 | 13.3 | 
14 | Cc1ncc(C(=O)NCCN2CCCC2(C)C)cc1NC(=O)c1cnn2cc(-c3cn(C)nc3C)sc12 [Example 174, 2-(1,3-dimethyl-1H-pyrazol-4-yl)-N-(5-((2-(2,2-dimethylpyrrolidin-1-yl)ethyl)carbamoyl)-2-methylpyridin-3-yl)pyrazolo[5,1-b]thiazole-7-carboxamide] | 0.3 | 9.9 | 
15 | Cc1ncc(C(=O)NCCN2CCC(F)(F)CC2)cc1NC(=O)c1cnn2cc(-c3cccnc3)sc12 [Example 157, N-(5-((2-(4,4-difluoropiperidin-1-yl)ethyl)carbamoyl)-2-methylpyridin-3-yl)-2-(pyridin-3-yl)pyrazolo[5,1-b]thiazole-7-carboxamide] | 0.6 | 21.2 | 
16 | COCCn1cc(-c2cn3ncc(C(=O)Nc4cc(NC(=O)CCN5CCC56CCC6)cnc4C)c3s2)cn1 [Example 95, N-(5-(3-(1-azaspiro[3.3]heptan-1-yl)propanamido)-2-methylpyridin-3-yl)-2-(1-(2-methoxyethyl)-1H-pyrazol-4-yl)pyrazolo[5,1-b]thiazole-7-carboxamide] | 0.4 | 17.9 | 
17 | Cc1ncc(C(=O)NCCN2CCOCC23CCC3)cc1NC(=O)c1cnn2cc(-c3cnn(C)c3)sc12 [Example 117, N-(5-((2-(8-oxa-5-azaspiro[3.5]nonan-5-yl)ethyl)carbamoyl)-2-methylpyridin-3-yl)-2-(1-methyl-1H-pyrazol-4-yl)pyrazolo[5,1-b]thiazole-7-carboxamide] | 0.4 | 5.6 | 
18 | Cc1ncc(NC(=O)CCN2CCC3(CC2)CC3)cc1NC(=O)c1cnn2cc(-c3cnn(C)c3)sc12 [Example 97, N-(5-(3-(6-azaspiro[2.5]octan-6-yl)propanamido)-2-methylpyridin-3-yl)-2-(1-methyl-1H-pyrazol-4-yl)pyrazolo[5,1-b]thiazole-7-carboxamide] | 0.4 | 8.4 | 
19 | Cc1ncc(C(=O)NCCN2CCCC2(C)C)cc1NC(=O)c1cnn2cc(-c3cnn(CCO)c3)sc12 [Example 140, N-(5-((2-(2,2-dimethylpyrrolidin-1-yl)ethyl)carbamoyl)-2-methylpyridin-3-yl)-2-(1-(2-hydroxyethyl)-1H-pyrazol-4-yl)pyrazolo[5,1-b]thiazole-7-carboxamide] | 0.5 | 309 | 
20 | Cc1ncc(C(=O)NCCN2CC3CCC2CC3)cc1NC(=O)c1cnn2cc(-c3cnn(CC#N)c3)sc12 [Example 151, N-(5-((2-(2-azabicyclo[2.2.2]octan-2-yl)ethyl)carbamoyl)-2-methylpyridin-3-yl)-2-(1-(cyanomethyl)-1H-pyrazol-4-yl)pyrazolo[5,1-b]thiazole-7-carboxamide] | 0.3 | 240 | 
21 | Cc1ncc(C(=O)NCCN2CCOCC23CC3)cc1NC(=O)c1cnn2cc(-c3cnn(C)c3)sc12 [Example 110, N-(5-((2-(7-oxa-4-azaspiro[2.5]octan-4-yl)ethyl)carbamoyl)-2-methylpyridin-3-yl)-2-(1-methyl-1H-pyrazol-4-yl)pyrazolo[5,1-b]thiazole-7-carboxamide] | 0.6 | 35.4 | 
22 | COCCn1nc(C)c(-c2cn3ncc(C(=O)Nc4cc(NC(=O)CCN5CCC6(CC6)C5)cnc4C)c3s2)c1C [Example 103, N-(5-(3-(5-azaspiro[2.4]heptan-5-yl)propanamido)-2-methylpyridin-3-yl)-2-(1-(2-methoxyethyl)-3,5-dimethyl-1H-pyrazol-4-yl)pyrazolo[5,1-b]thiazole-7-carboxamide] | 0.8 | 38.8 | 
23 | Cc1ncc(NC(=O)CCN2CCCC2(C)C)cc1NC(=O)c1cnn2cc(-c3ccnn3C)sc12 [Example 11, N-(5-(3-(2,2-dimethylpyrrolidin-1-yl)propanamido)-2-methyl-pyridin-3-yl)-2-(1-methyl-1H-pyrazol-5-yl)pyrazolo[5,1-b]thiazole-7-carboxamide] | 0.5 | 10.6 | 
24 | Cc1ncc(C(=O)NCCN2C3CCC2COC3)cc1NC(=O)c1cnn2cc(-c3cnn(C)c3)sc12 [Example 122, N-(5-((2-(3-oxa-8-azabicyclo[3.2.1]octan-8-yl)ethyl)carbamoyl)-2-methylpyridin-3-yl)-2-(1-methyl-1H-pyrazol-4-yl)pyrazolo[5,1-b]thiazole-7-carboxamide] | 0.3 | 19.4 | 
25 | COCCN(CCNC(=O)c1cnc(C)c(NC(=O)c2cnn3cc(-c4cnn(C)c4)sc23)c1)C(C)C [Example 127, N-(5-((2-(isopropyl(2-methoxyethyl)amino)ethyl)carbamoyl)-2-methylpyridin-3-yl)-2-(1-methyl-1H-pyrazol-4-yl)pyrazolo[5,1-b]thiazole-7-carboxamide] | 0.6 |  | 16.2

— patent US20240109917A1 (ACTELION PHARMACEUTICALS LTD, priority 2020, published 2024)
